This is an account of results in patent US9340506B2, “Acetamide derivatives as glucokinase activators, their process and medicinal applications” (ADVINUS THERAPEUTICS LIMITED, priority 2007, dated 2016).

Usually EC50 stands for the concentration giving half of the maximal effect. A word on the Emax: it is the maximal effect, on the per cent scale that the assay sets.

A value given as a limit tells only on which side of the number the result lay.

This test addresses purified human recombinant GK (Homo sapiens (Human), UniProt P35557). Briefly: Glucokinase activity assay (coupled enzymatic, G6PD/NADH absorbance at 340 nm). The note with it: for EC50: EC50 of % change in S0.5 of glucokinase for glucose, sigmoidal fit, read-out: EC50 (with respect to % ΔS0.5); for Emax / % Emax (with respect to % ΔS0.5): Emax of % change in S0.5 of glucokinase for glucose, vehicle S0.5 = 0%, 0 mM glucose = 100%; for Emax: read-out: % Emax (with respect to % ΔS0.5). It is filed as biochemical. The text has this:
The glucokinase (GK) assay is a coupled enzymatic assay. GK catalyzes the first step of glycolysis, the conversion of glucose to glucose-6-phosphate (G6P) in the presence of ATP. G6P in turn is converted by glucose-6-phosphate dehydrogenase (G6PD) to 6-phosphogluconate, a process that requires NAD, resulting in NADH formation. Since the GK-catalyzed step is the rate-limiting step of this coupled enzymatic process, the rate of accumulation of 6-phosphogluconate and NADH is directly proportional to the rate of glucose phosphorylation by GK. The rate of the GK-catalyzed reaction can therefore be measured by monitoring the increase in NADH absorbance at 340 nm.
The assay is carried out according to the protocol outlined in Hariharan et al (1997), Diabetes 46: 11-16. Briefly, the test compounds are incubated in a reaction mix containing 25 mM HEPES (pH 7.2), 10 mM MgCl2, 100 mM KCl, 5 mM ATP, 2 mM DTT, 0.5 mM NAD, 1 U/mL Leuconostoc mesenteroides G6PD, 0.3 U/mL of purified human recombinant GK, and different concentrations of glucose. Enzymatic activity is calculated from the initial reaction velocity, measured from the change in NADH absorbance as a function of time.
Compounds described in formula (I), in concentration ranges from 1.0 nM to 500 μM, are tested in the purified human recombinant glucokinase assay described above.
A compound is considered to be a glucokinase activator if it, in its testable range of concentrations, yields a higher rate of glucose phosphorylation than in its absence at a particular glucose concentration, for example at 5 mM glucose.
Compounds of general formula (I) are tested in the in vitro GK enzymatic assay to monitor dose-dependent effect on glucokinase activation (in kinetic mode), as described above, at various glucose concentrations. The S0.5 of glucokinase for glucose at different concentration of each compound of interest is calculated from the following modified version of the Michaelis-Menten equation, V=Vmax [S]^n/(S0.5^n+[S]^n), where [S] is the glucose concentration and n is the Hill coefficient (taken as 1.7 to account for the sigoidal kinetics of glucokinase with respect to glucose). The S0.5 is plotted against the log of the compound concentration. The change in the S0.5 of glucokinase (ΔS0.5) for glucose is calculated by subtracting the S0.5 at each concentration of the compound from the S0.5 in the vehicle control. The ΔS0.5 is then normalized to a percent scale, where the S0.5 in the vehicle control is set to 0% and 0 mM glucose is set to 100%. The % ΔS0.5 is then plotted against the log of the compound concentration. The EC50 and Emax of % change in S0.5 is obtained from the sigoidal fit of the data. Detailed protocol has been described in our copending application no. 409/CHE/2007 which is incorporated herein by reference. Characterization data of some representative glucokinase activators of the present disclosure, which are illustrative but not limiting, are given in table I below.

Sequence of purified human recombinant GK (P35557 whole entry): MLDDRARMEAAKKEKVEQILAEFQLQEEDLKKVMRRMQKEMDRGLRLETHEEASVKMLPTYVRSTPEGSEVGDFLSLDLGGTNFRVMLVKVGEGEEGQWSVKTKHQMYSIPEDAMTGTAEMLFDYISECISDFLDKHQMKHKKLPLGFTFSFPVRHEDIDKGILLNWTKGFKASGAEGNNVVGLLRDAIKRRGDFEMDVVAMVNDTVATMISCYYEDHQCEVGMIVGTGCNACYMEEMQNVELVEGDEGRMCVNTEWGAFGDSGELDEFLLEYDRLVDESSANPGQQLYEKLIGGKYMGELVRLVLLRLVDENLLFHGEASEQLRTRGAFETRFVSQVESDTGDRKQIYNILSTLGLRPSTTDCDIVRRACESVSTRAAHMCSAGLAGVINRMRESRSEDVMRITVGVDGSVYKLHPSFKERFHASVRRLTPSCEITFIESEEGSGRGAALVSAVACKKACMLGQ

Regarding `O=C(Nc1ncc(-n2cccn2)s1)C(Oc1ccc(F)cc1F)c1ccc(S(=O)(=O)C2CC2)cc1` (single isomer, unassigned; (+)) [Example G4A, (+)2-(4-cyclopropylsulfonylphenyl)-2-(2,4-difluorophenoxy)-N-(5-pyrazol-1-ylthiazol-2-yl)acetamide], the concentration giving a half-maximal response (EC50) is 260 nM and the Emax stood at 91%.

Turning to `CC(C)(C(=O)O)c1ccc(Oc2cnc(NC(=O)C(OC3CCOCC3)c3ccc(S(=O)(=O)C4CC4)cc3)s2)cc1` (single isomer, unassigned; (+)) [Example G5A, (+)2-[4-[2-[[2-(4-cyclopropylsulfonylphenyl)-2-tetrahydropyran-4-yloxy-acetyl]amino]thiazol-5-yl]oxyphenyl]-2-methyl-propanoic acid], the half-maximal effective concentration (EC50) came out at 94 nM and the Emax worked out at 91%.

Turning to `Cc1ccc(Oc2cnc(NC(=O)C(O[C@@H]3CCOC3)c3ccc(S(=O)(=O)C4CC4)cc3)s2)cc1C(=O)O` (single isomer, unassigned; (+)) [Example G11A], the EC50 amounted to 570 nM and the Emax is 92%.

On to `O=C(O)c1cnn(-c2cnc(NC(=O)C(OC3CCOCC3)c3ccc(S(=O)(=O)C4CC4)cc3)s2)c1` (single isomer, unassigned; (+)) [Example G12A, (+)1-[2-[[2-(4-cyclopropylsulfonylphenyl)-2-tetrahydropyran-4-yloxy-acetyl]amino]thiazol-5-yl]pyrazole-4-carboxylic acid], for which the EC50 came out at 300 nM and the Emax was 90%.

For the molecule `Cc1cc(Oc2cnc(NC(=O)C(O[C@@H]3CCOC3)c3ccc(S(=O)(=O)C4CC4)cc3)s2)ccc1C(=O)O` (single isomer, unassigned; (+)) [Example G14A], the concentration for a half-maximal effect (EC50) is 380 nM and the Emax worked out at 99%.

In the case of `CCOC(=O)c1cccc(Oc2cnc(NC(=O)C(OC3CCOCC3)c3ccc(S(=O)(=O)C4CC4)cc3)s2)c1` (single isomer, unassigned; (+)) [Example G19A, (+)ethyl 3-[2-[[2-(4-cyclopropylsulfonylphenyl)-2-tetrahydropyran-4-yloxy-acetyl]amino]thiazol-5-yl]oxybenzoate], the half-maximal effective concentration (EC50) worked out at 100 nM and the Emax is 95%.

Take `O=C(O)c1cncc(Oc2cnc(NC(=O)C(OC3CCOCC3)c3ccc(S(=O)(=O)C4CC4)cc3)s2)c1` (single isomer, unassigned; (+)) [Example G22A, (+)5-[2-[[2-(4-cyclopropylsulfonylphenyl)-2-tetrahydropyran-4-yloxy-acetyl]amino]thiazol-5-yl]oxypyridine-3-carboxylic acid]: the EC50 worked out at 290 nM and the Emax was determined as 95%.

As for `Cc1cc(Oc2cnc(NC(=O)C(OC3CCOCC3)c3ccc(S(=O)(=O)C4CC4)cc3)s2)ccc1C(=O)O` (single isomer, unassigned; (-)) [Example G1B, (−)4-[2-[[2-(4-cyclopropylsulfonylphenyl)-2-tetrahydropyran-4-yloxy-acetyl]amino]thiazol-5-yl]oxy-2-methyl-benzoic acid], the concentration giving a half-maximal response (EC50) was determined as 330 nM and the “% Emax (with respect to % ΔS0.5)” value is recorded as 92%.

For the molecule `O=C(O)Cc1nc(NC(=O)C(OC2CCOCC2)c2ccc(S(=O)(=O)N3CCCCC3)cc2)sc1Cl` (single isomer, unassigned; (-)) [Example G3B, (−)2-[5-chloro-2-[[2-[4-(1-piperidylsulfonyl)phenyl]-2-tetrahydropyran-4-yloxy-acetyl]amino]thiazol-4-yl]acetic acid], the EC50 was 420 nM and the Emax is 94%.

For the molecule `O=C(Nc1ncc(-n2cccn2)s1)C(Oc1ccc(F)cc1F)c1ccc(S(=O)(=O)C2CC2)cc1` (single isomer, unassigned; (-)) [Example G4B, (−)2-(4-cyclopropylsulfonylphenyl)-2-(2,4-difluorophenoxy)-N-(5-pyrazol-1-ylthiazol-2-yl)acetamide], the EC50 was determined as 640 nM and the “% Emax (with respect to % ΔS0.5)” value stood at 79%.

Regarding `O=C(Nc1nccs1)C(OC1CCOCC1)c1ccc(S(=O)(=O)C2CC2)cc1` (stereo not shown) [Example A-1, 2-(4-Cyclopropylsulfonylphenyl)-2-tetrahydropyran-4-yloxy-N-thiazol-2-yl-acetamide], the 50% effective concentration (EC50) was 1400 nM and the Emax came out at 89%.

For `O=C(Nc1ncc(F)s1)C(OC1CCOCC1)c1ccc(S(=O)(=O)N2CCOCC2)cc1` (stereo not shown) [Example A-11, N-(5-fluorothiazol-2-yl)-2-(4-morpholinosulfonylphenyl)-2-tetrahydropyran-4-yloxy-acetamide], the EC50 came to 950 nM and the Emax is 85%.

On to `COc1ccc2nc(NC(=O)C(OC3CCOCC3)c3ccc(S(=O)(=O)N4CCOCC4)cc3)sc2n1` (stereo not shown) [Example A-12, N-(5-methoxythiazolo[5,4-b]pyridin-2-yl)-2-(4-morpholinosulfonylphenyl)-2-tetrahydropyran-4-yloxy-acetamide], for which the EC50 was 660 nM and the Emax is 88%.

With `CN1CCC(OC(C(=O)Nc2ncc(F)s2)c2ccc(S(=O)(=O)C3CC3)cc2)CC1` (stereo not shown) [Example A-32, 2-(4-Cyclopropylsulfonylphenyl)-N-(5-fluorothiazol-2-yl)-2-[(1-methyl-4-piperidyl)oxy]acetamide], the half-maximal effective concentration (EC50) is above 10000 nM.

In the case of `CC(C)(C)OC(=O)c1ccc(NC(=O)C(Oc2ccc(F)cc2F)c2ccc(S(=O)(=O)N3CCOCC3)cc2)nc1` (stereo not shown) [Example A-58, tert-Butyl 6-[[2-(2,4-difluorophenoxy)-2-(4-morpholinosulfonylphenyl)acetyl]amino]pyridine-3-carboxylate], the EC50 is above 10000 nM.

As to `O=C(O)C1CCc2nc(NC(=O)C(OC3CCOCC3)c3ccc(S(=O)(=O)C4CC4)cc3)sc2C1` (stereo not shown) [Example B-4, 2-[[2-(4-cyclopropylsulfonylphenyl)-2-tetrahydropyran-4-yloxy-acetyl]amino]-4,5,6,7-tetrahydro-1,3-benzothiazole-6-carboxylic acid], the EC50 is 3700 nM and the Emax came to 83%.

With `Cc1cc(Oc2cnc(NC(=O)C(Oc3ccc(F)cc3F)c3ccc(S(=O)(=O)C4CC4)cc3)s2)ccc1C(=O)O` (stereo not shown) [Example B-9, 4-[2-[[2-(4-cyclopropylsulfonylphenyl)-2-(2,4-difluorophenoxy)acetyl]amino]thiazol-5-yl]oxy-2-methyl-benzoic acid], the EC50 was 93 nM and the Emax came out at 89%.

As to `O=C(O)Cc1nc(NC(=O)C(OC2CCOCC2)c2ccc(S(=O)(=O)N3CCCCC3)cc2)sc1Cl` (stereo not shown) [Example B-12, 2-[5-chloro-2-[[2-[4-(1-piperidylsulfonyl)phenyl]-2-tetrahydropyran-4-yloxy-acetyl]amino]thiazol-4-yl]acetic acid], the EC50 came to 1120 nM and the Emax turned out to be 90%.

On to `O=C(O)c1ccc(Oc2cnc(NC(=O)C(OC3CCOCC3)c3ccc(S(=O)(=O)C4CC4)cc3)s2)cc1Cl` (stereo not shown) [Example B-20, 2-chloro-4-[2-[[2-(4-cyclopropylsulfonylphenyl)-2-tetrahydropyran-4-yloxy-acetyl]amino]thiazol-5-yl]oxy-benzoic acid], for which the EC50 was determined as 590 nM and the Emax stood at 94%.

For `O=C(O)c1cc(Oc2cnc(NC(=O)C(OC3CCOCC3)c3ccc(S(=O)(=O)C4CC4)cc3)s2)ccc1Cl` (stereo not shown) [Example B-23, 2-chloro-5-[2-[[2-(4-cyclopropylsulfonylphenyl)-2-tetrahydropyran-4-yloxy-acetyl]amino]thiazol-5-yl]oxy-benzoic acid], the EC50 came out at 480 nM and the Emax stood at 94%.

With `O=C(O)c1cc(-c2ccc(Oc3cnc(NC(=O)C(OC4CCOCC4)c4ccc(S(=O)(=O)C5CC5)cc4)s3)cc2)no1` (stereo not shown) [Example B-26, 3-[4-[2-[[2-(4-cyclopropylsulfonylphenyl)-2-tetrahydropyran-4-yloxy-acetyl]amino]thiazol-5-yl]oxyphenyl]isoxazole-5-carboxylic acid], the EC50 worked out at 220 nM and the Emax is 92%.
